Measured values from ChEMBL document CHEMBL1141769, “Pursaethosides A-E, triterpene saponins from Entada pursaetha” (J Nat Prod, 2005).

Tests used:
HCT-116 = assay: Cytotoxicity against human HCT116 cells after 96 hrs by MTT assay; assay type: functional, cell-based; conditions: HCT-116, 96 h
HT-29 = assay: Cytotoxicity against human HT-29 cells after 96 hrs by MTT assay; assay type: functional, cell-based; conditions: HT-29, 96 h

SMILES	IC50 (HCT-116) [mg/L]	IC50 (HT-29) [mg/L]
CC(=O)N[C@H]1[C@H](O[C@H]2CC[C@]3(C)[C@H]4CC=C5[C@@H]6CC(C)(C)CC[C@]6(C(=O)O[C@@H]6O[C@H](CO)[C@@H](O)[C@H](O)[C@H]6O[C@@H]6OC[C@](O)(CO)[C@H]6O)[C@H](O)C[C@@]5(C)[C@]4(C)CC[C@H]3C2(C)C)O[C@H](CO[C@@H]2OC[C@H](O)[C@H](O)[C@H]2O)[C@@H](O)[C@@H]1O[C@@H]1OC[C@@H](O)[C@H](O)[C@H]1O [PURSAETHOSIDE B]	> 100	> 100
CC(=O)N[C@H]1[C@H](O[C@H]2CC[C@]3(C)[C@H]4CC=C5[C@@H]6CC(C)(C)CC[C@]6(C(=O)O[C@@H]6O[C@H](CO)[C@@H](O)[C@H](O)[C@H]6O[C@@H]6OC[C@](O)(CO)[C@H]6O)[C@H](O)[C@H](O)[C@@]5(C)[C@]4(C)CC[C@H]3C2(C)C)O[C@H](CO[C@@H]2OC[C@H](O)[C@H](O)[C@H]2O)[C@@H](O)[C@@H]1O[C@@H]1OC[C@@H](O)[C@H](O)[C@H]1O [PURSAETHOSIDE C]	> 100	> 100
